Measured values from ChEMBL document CHEMBL3507680, “University of Dundee, Gates Library screen for HepG2 cell viability”.

Test: Human HepG2 cell viability assay in 384 well format
Assay type: toxicity, cell-based
Set-up: dose 125 nL, time 70.5 hour; concentration not given beside the values
Conditions: HepG2 cells, read-out: Inhibition

Row | SMILES | cytotoxicity at 70.5 h [%]
1 | Cc1cnn(CC2CCCN2CC(=O)Nc2nc(C)cs2)c1 (stereo not drawn) | 1.41
2 | CCN(Cc1cccc2c1OCO2)C(=O)NC1CC1 | 8.97
3 | Cc1cnn(CC2CCN(CC(O)COc3ccc(F)cc3)CC2)c1 (stereo not drawn) | 26.5
4 | COc1ccccc1OCC(=O)NS(=O)(=O)c1ccc(Br)s1 | -4.66
5 | CCCC(C)C(=O)N1CCC(n2cccc2C(=O)OC)CC1 (stereo not drawn) | -2.08
6 | COCCc1noc(CN2CCOC(Cn3nc(C)cc3C)C2)n1 (stereo not drawn) | 2.63
7 | CCc1cnc(CN2CCC(N(C)Cc3noc(C4CC4)n3)C2)o1 (stereo not drawn) | 23.8
8 | CN(CC(=O)N1CCCN(Cc2cscn2)CC1)c1cnccn1 | -5.45
9 | COCCc1noc(CN2CCCCC2Cn2nc(C)cc2C)n1 (stereo not drawn) | -1.86
10 | Cc1cnn(CC2CCCN2CC(=O)Nc2cc(C)nn2C)c1 (stereo not drawn) | 9.7
11 | Cc1ccc(N2CCCC(NCc3ccncc3)C2)nn1 (stereo not drawn) | 11.6
12 | O=C(COCC1CC1)N1CCCC(n2ccnc2)C1 (stereo not drawn) | 5.1
13 | CCc1nccn1C1CCCN(C(=O)Cc2cn3ccccc3n2)C1 (stereo not drawn) | -3.88
14 | Cc1ncc(CNCC2CCCN2c2cccnn2)s1 (stereo not drawn) | -19.7
15 | CC(=O)N(Cc1noc(C)n1)C1CCN(Cc2ccncc2Cl)C1 (stereo not drawn) | -4.45
16 | CC(NC(=O)NCc1ccc(Cl)cc1)c1ccccn1 (stereo not drawn) | -10.7
17 | CNS(=O)(=O)c1cccc(CNC(=O)c2c(C)nn(C)c2C)c1 | -3.24
18 | CC(NC(=O)NCc1ccc(Cl)s1)c1ccccn1 (stereo not drawn) | -20
19 | CC(C)(C)C(=O)NCCc1ccn(-c2ccccc2)n1 | -17.1
20 | CC(C)c1nc(CCNC(=O)NCc2ccnc(N(C)C)c2)cs1 | -10.2

Row | SMILES | cytotoxicity at 70.5 h [%]
21 | Cn1ccc(CN2CCC(COC3CCCC3)CC2)cc1=O | -11
22 | O=C(CCN1CCOC(Cn2cccn2)C1)NC1CCCC1 (stereo not drawn) | 17.5
23 | Cc1cnn(CC2CCCN2C(=O)c2cnc3n[nH]c(C)c3c2)c1 (stereo not drawn) | 15.1
24 | Cc1nc(C2CCCN(C(=O)c3cnn(C(C)(C)C)c3)C2)no1 (stereo not drawn) | 23.3
25 | Cc1ccc(CC(=O)N2CCCCC2c2nc(C)cs2)cn1 (stereo not drawn) | -14.4
26 | Cc1nc(C2CCCN(C(=O)c3ccc(N4CCCC4)nc3)C2)no1 (stereo not drawn) | 1.03
27 | Cc1cn2nc(N3CCCC3CC(C)(C)C)sc2n1 (stereo not drawn) | -4.57
28 | CCn1cc(C(=O)NCc2csc(Br)c2)cn1 | -11.6
29 | CC(c1nc(C2CC2)no1)N1CCN(Cc2ccccc2F)CC1 (stereo not drawn) | -6.67
30 | Cc1ccc(N2CCCC(NCc3nc(C)c(C)o3)C2)nn1 (stereo not drawn) | -14.3
31 | Cc1cnn(C2CCCN(C(=O)CCCOc3cccc(F)c3)C2)c1 (stereo not drawn) | 0.97
32 | Cc1cc(C(=O)N2CCCC(n3cncn3)C2)c(C)n1C1CC1 (stereo not drawn) | -1.59
33 | Cc1cnn(CC2CCCN2Cc2nccn2C)c1 (stereo not drawn) | 13.6
34 | COc1c(CNCc2ccc(CN(C)C)cc2)c(C)nn1C | -4.98
35 | COc1ccc(CN(C)CC2CCCN2c2cccnn2)cc1F (stereo not drawn) | 44.2
36 | CN(Cc1cccnc1)CC1CCCN1c1cccnn1 (stereo not drawn) | 13.1
37 | CC(=O)N(C)c1nc(CN2CCOC(Cn3cc(C)cn3)C2)cs1 (stereo not drawn) | 13.6
38 | CCN1CCN(C2CCN(Cc3nc4ccccc4o3)CC2)C1=O | -8.04
39 | Cn1ccnc1CN1CCN(CC(O)c2ccco2)CC1 (stereo not drawn) | -25.9
40 | O=C(c1cc(F)ccc1F)C1CCN(C(=O)c2ccccn2)CC1 | -12.2

Row | SMILES | cytotoxicity at 70.5 h [%]
41 | Cc1nc(CN2CCN(C(=O)c3cc(C4CC4)on3)CC2)cs1 | -14.7
42 | Cc1cc(S(=O)(=O)NCc2cccc(C(=O)N3CCCC3)c2)c(C)s1 | -0.781
43 | O=C(CCc1ccccc1)N1CCC(N2CCNC2=O)CC1 | -8.47
44 | Cc1cnn(CC2CCCN2C(=O)c2nccc3ccccc23)c1 (stereo not drawn) | -15.9
45 | O=C(NCC(O)CN1CCc2ccccc2C1)Nc1cccnc1 (stereo not drawn) | -17.4
46 | O=C(c1cccc(CNS(=O)(=O)c2ccccc2F)c1)N1CCCC1 | -16.2
47 | Cc1cnn(CC2CCCCN2C(=O)c2ccnc(N(C)C)c2)c1 (stereo not drawn) | -17.7
48 | CC(C)c1nc(C2CCCN(C(=O)c3ccc4[nH]cnc4c3)C2)no1 (stereo not drawn) | -18.2
49 | CCc1nc(C2CCCN(C(=O)c3ccc(OC(C)C)nc3)C2)no1 (stereo not drawn) | 17.6
50 | CC(C)c1nc(C2CCCN(C(=O)c3ccc4nccn4c3)C2)no1 (stereo not drawn) | -3.59
51 | CCn1cc(NC(=O)NCC(O)CN2CCCCC2)cn1 (stereo not drawn) | -14.9
52 | CCc1nc(C2CCCN(C(=O)c3ccc4[nH]nnc4c3)C2)no1 (stereo not drawn) | -11
53 | O=C(c1ccc(-n2cccn2)nc1)N1CCCN(c2cccnn2)CC1 | -14.8
54 | O=C(c1ccn(-c2cccc(F)c2)n1)N1CCCC(n2cccn2)C1 (stereo not drawn) | -15.2
55 | COCc1nc(C(=O)N2CCCCC2Cn2cc(C)cn2)cs1 (stereo not drawn) | 16.8
56 | Cc1nc(CN2CCN(C(=O)c3sccc3C3CC3)CC2)cs1 | -13
57 | CCn1c(C)nnc1CN(C)C1CCN(CCn2cccn2)C1 (stereo not drawn) | 7.42
58 | COc1c(CNCc2ccc(C(=O)N(C)C)cc2)c(C)nn1C | 0.637
